Data from ChEMBL document CHEMBL1141982, “A rate determining step change in the pre-steady state of acetylcholinesterase inhibitions by 1,n-alkane-di-N-butylcarbamates” (Bioorg Med Chem Lett, 2005).

Columns and labels:
Acetylcholinesterase [1] = biological target: T1, Acetylcholinesterase (Homo sapiens, UniProt P22303); assay: Inhibition constant for acetylcholinesterase
Acetylcholinesterase [2] = biological target: T1, Acetylcholinesterase; assay: Dissociation constant for acetylcholinesterase
Acetylcholinesterase [3] = biological target: T1, Acetylcholinesterase; assay: Ratio of k2/k-2 for acetylcholinesterase
Acetylcholinesterase [4] = biological target: T1, Acetylcholinesterase; assay: Kinetic constant (k-2) for acetylcholinesterase
[5] = Carbamylation rate constant was determined
Acetylcholinesterase [6] = biological target: T1, Acetylcholinesterase; assay: Kinetic constant (k2) for acetylcholinesterase

T1 sequence (P22303 whole entry): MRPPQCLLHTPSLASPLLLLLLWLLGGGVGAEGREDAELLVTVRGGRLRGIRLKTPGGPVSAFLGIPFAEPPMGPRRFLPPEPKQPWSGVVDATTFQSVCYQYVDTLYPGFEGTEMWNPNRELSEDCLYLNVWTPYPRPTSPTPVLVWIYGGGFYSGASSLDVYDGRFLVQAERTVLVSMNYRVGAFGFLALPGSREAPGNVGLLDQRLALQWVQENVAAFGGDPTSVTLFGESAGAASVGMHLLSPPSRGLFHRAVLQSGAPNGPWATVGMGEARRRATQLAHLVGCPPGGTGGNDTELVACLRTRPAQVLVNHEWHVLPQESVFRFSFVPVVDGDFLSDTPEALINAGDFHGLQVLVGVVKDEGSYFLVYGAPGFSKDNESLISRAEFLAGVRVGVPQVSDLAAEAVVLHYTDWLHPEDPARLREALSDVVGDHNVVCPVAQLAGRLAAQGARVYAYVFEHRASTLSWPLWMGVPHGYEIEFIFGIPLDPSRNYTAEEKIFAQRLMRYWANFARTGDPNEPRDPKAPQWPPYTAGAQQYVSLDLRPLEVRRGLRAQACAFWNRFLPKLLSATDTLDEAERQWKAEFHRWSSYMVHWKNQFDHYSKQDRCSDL

SMILES	Ki (Acetylcholinesterase [1])	Ks (Acetylcholinesterase [2])	Ratio (Acetylcholinesterase [3])	k-2 (Acetylcholinesterase [4])	kc [5]	k2 (Acetylcholinesterase [6])
CCCCNC(=O)OCCCCCCCCCCO	200 nM	0.52 µM	2.5	3.1 10e-3 1/s	3.9 10e-3 1/s	7.6 10e-3 1/s
CCCCNC(=O)OCCO	–	2.3 µM	1.5	5 10e-3 1/s	3.1 10e-3 1/s	7.5 10e-3 1/s
CCCCNC(=O)OCCCCCCCCCCOC(=O)NCCCC	160 nM	0.37 µM	2.3	2 10e-3 1/s	4.1 10e-3 1/s	4.6 10e-3 1/s
CCCCNC(=O)OCCCCCCCCCCCCCCO	200 nM	0.45 µM	1.3	4 10e-3 1/s	4.6 10e-3 1/s	5.3 10e-3 1/s
CCCCNC(=O)OCCOC(=O)NCCCC	360 nM	2.9 µM	8	0.35 10e-3 1/s	3 10e-3 1/s	2.8 10e-3 1/s
CCCCNC(=O)OCCCCCCCCCCCCCCCCOC(=O)NCCCC	170 nM	0.34 µM	2	3.1 10e-3 1/s	5.3 10e-3 1/s	6.1 10e-3 1/s
CCCCNC(=O)OCCCCCOC(=O)NCCCC	250 nM	1.4 µM	5.5	0.62 10e-3 1/s	3.3 10e-3 1/s	3.4 10e-3 1/s
CCCCNC(=O)OCCCCCCCCCCCCOC(=O)NCCCC	160 nM	0.36 µM	2.2	2.2 10e-3 1/s	4.6 10e-3 1/s	5 10e-3 1/s
CCCCNC(=O)OCCCCCCCCCCCCCCOC(=O)NCCCC	160 nM	0.36 µM	2.3	2.4 10e-3 1/s	4.9 10e-3 1/s	5.4 10e-3 1/s
CCCCNC(=O)OCCCCCO	1400 nM	2.2 µM	2	5 10e-3 1/s	3.5 10e-3 1/s	8.1 10e-3 1/s
CCCCNC(=O)OCCCCCCCCOC(=O)NCCCC	150 nM	0.39 µM	2.6	1.6 10e-3 1/s	4 10e-3 1/s	4.2 10e-3 1/s
CCCCNC(=O)OCCCCCCCCCCCCO	300 nM	0.65 µM	2	4 10e-3 1/s	4.1 10e-3 1/s	8.1 10e-3 1/s
CCCCNC(=O)OCCCCCCCCO	360 nM	0.88 µM	2.4	3 10e-3 1/s	3.6 10e-3 1/s	7.2 10e-3 1/s
CCCCNC(=O)OCCCCCCCCCCCCCCCCO	130 nM	0.37 µM	2	3 10e-3 1/s	4.9 10e-3 1/s	6.1 10e-3 1/s
